# Measured values: patent publication US11021457B2, “Class of isoindolone-imide ring-1,3-dione-2-ene compounds, composition and use thereof” (WIGEN BIOMEDICINE TECHNOLOGY (SHANGHAI) CO., LTD., priority 2017, dated 2021)
# Read-outs that look alike come from different tables or passages of the source.
# Key:
# SU-DHL6 = experiment: Inhibition of tumor cell proliferation, CellTiter-Glo, SU-DHL6; type: cell-based; conditions: compound concentration 50 μM, 72 hours; for cell survival rate (% of control) at 50 µM: Homo sapiens, SU-DHL-6, read-out: Inhibitory activity against proliferation (cell survival rate) SU-DHL6
# Outline: (§1)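 Cells seeded at 2000-10000 cells/well in complete medium at 37° C., 5% CO2; suspension lines dosed immediately, adherent lines after attachment. Viability by CellTiter-Glo luminescence at 72 h; survival % from blank-corrected RLU vs control. Scored at 50 μM: + (60-<90%), ++ (>30-60%), +++ (≤30%).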
# RPMI-8226 = experiment: Inhibition of tumor cell proliferation, CellTiter-Glo, RPMI-8226; type: cell-based; conditions: compound concentration 50 μM, 72 hours; for cell survival rate (% of control) at 50 µM: Homo sapiens, RPMI-8226, read-out: Inhibitory activity against proliferation (cell survival rate) RPMI-8226
# Outline: as §1
# K562 = experiment: Inhibition of tumor cell proliferation, CellTiter-Glo, K562; type: cell-based; conditions: compound concentration 50 μM, 72 hours; for cell survival rate (%) at 50 µM: Homo sapiens, K562, read-out: Inhibitory activity against proliferation (cell survival rate) K562
# Outline: as §1
# A549 = experiment: Inhibition of tumor cell proliferation, CellTiter-Glo, A549; type: cell-based; conditions: compound concentration 50 μM, 72 hours; for cell survival rate (% of control) at 50 µM: Homo sapiens, A549, read-out: Inhibitory activity against proliferation (cell survival rate) A549
# Outline: as §1
# MDA-MB-453 = experiment: Inhibition of tumor cell proliferation, CellTiter-Glo, MDA-MB-453; type: cell-based; conditions: compound concentration 50 μM, 72 hours; for cell survival rate (%) at 50 µM: Homo sapiens, MDA-MB-453, read-out: Inhibitory activity against proliferation (cell survival rate) MDA-MB-453
# Outline: as §1
# BxPC-3 = experiment: Inhibition of tumor cell proliferation, CellTiter-Glo, BxPC-3; type: cell-based; conditions: compound concentration 50 μM, 72 hours; for cell survival rate (%) at 50 µM: Homo sapiens, BXPC-3, read-out: Inhibitory activity against proliferation (cell survival rate) BxPC-3
# Outline: as §1
# LC3B = LC3B (Homo sapiens (Human), UniProt Q9GZQ8); experiment: Fluorescence polarization experiment targeting LC3B (GST-LC3B with FITC-labeled peptide)
# [1] = GST-LC3B 180 nM, FITC-labeled peptide 18 nM, 25° C.
Compound,Inhibitory activity against proliferation (cell survival rate) SU-DHL6 (SU-DHL6),Inhibitory activity against proliferation (cell survival rate) RPMI-8226 (RPMI-8226),Inhibitory activity against proliferation (cell survival rate) K562 (K562),Inhibitory activity against proliferation (cell survival rate) A549 (A549),Inhibitory activity against proliferation (cell survival rate) MDA-MB-453 (MDA-MB-453),Inhibitory activity against proliferation (cell survival rate) BxPC-3 (BxPC-3),IC50 (LC3B; [1]),cell survival rate (% of control) at 50 µM (SU-DHL6),cell survival rate (% of control) at 50 µM (RPMI-8226),cell survival rate (%) at 50 µM (K562),cell survival rate (% of control) at 50 µM (A549),cell survival rate (%) at 50 µM (MDA-MB-453),cell survival rate (%) at 50 µM (BxPC-3),IC50 (LC3B)
O=C1CC(c2ccccc2)CC(=O)C1=CNCCN1CCN(C(=O)N2C(=O)CCC(N3C(=O)c4ccccc4C3=O)C2=O)CC1 (stereo not drawn) [Compound 101],++ (30<survival rate (%)≤60),+++ (survival rate (%)≤30),+++ (survival rate (%)≤30),+++ (survival rate (%)≤30),++ (30<survival rate (%)≤60),+ (60≤survival rate (%)<90),15 to 100 µM,–,–,–,–,–,–,–
CCCNC(=O)C1CC(=O)C(=CNc2cccc3c2CN(C2CCC(=O)NC2=O)C3=O)C(=O)C1 (stereo not drawn) [Compound 114],–,–,–,–,–,–,–,30 to 60%,60 to 90%,30 to 60%,30 to 60%,60 to 90%,60 to 90%,100 to 1000 µM
CCC(=O)/C(=C/Nc1cccc2c1CN(C1CCC(=O)NC1=O)C2=O)C(=O)CCc1ccccc1 (stereo not drawn) [Compound 128],+++ (survival rate (%)≤30),+++ (survival rate (%)≤30),+++ (survival rate (%)≤30),+++ (survival rate (%)≤30),+++ (survival rate (%)≤30),+ (60≤survival rate (%)<90),100 to 1000 µM,–,–,–,–,–,–,–
O=C1CCC(N2Cc3c(NC=C4C(=O)CCCC4=O)cccc3C2=O)C(=O)N1 (stereo not drawn) [Compound 132],–,–,–,–,–,–,–,≤ 30%,≤ 30%,30 to 60%,60 to 90%,60 to 90%,30 to 60%,100 to 1000 µM
O=C1CCC(N2Cc3c(NC=C4C(=O)CC(c5cc(C(F)(F)F)ccc5F)CC4=O)cccc3C2=O)C(=O)N1 (stereo not drawn) [Compound 140],+++ (survival rate (%)≤30),+++ (survival rate (%)≤30),+++ (survival rate (%)≤30),+++ (survival rate (%)≤30),++ (30<survival rate (%)≤60),++ (30<survival rate (%)≤60),< 3 µM,–,–,–,–,–,–,–
O=C1CCC(N2Cc3c(NC=C4C(=O)CC(c5c(C(F)(F)F)ccc(Cl)c5Cl)CC4=O)cccc3C2=O)C(=O)N1 (stereo not drawn) [Compound 141],+++ (survival rate (%)≤30),++ (30<survival rate (%)≤60),++ (30<survival rate (%)≤60),+++ (survival rate (%)≤30),+++ (survival rate (%)≤30),+ (60≤survival rate (%)<90),< 3 µM,–,–,–,–,–,–,–
